Data on 17 molecules can be found in US20230116602A1, “MCL1 INHIBITORS AND USES THEREOF” (California Institute of Technology, priority 2019, published 2023).

Assay [1] concerns drug-resistant cell lines of Table 3. The assay is described as follows: Cell line growth retardation assay, resistant cohort. It counts as cell-based, Human. Conditions: Homo sapiens, 144 h; arithmetic mean of IC50s over the resistant cohort of Table 3, 6 days growth; read-out: AvgRes IC50. Here is the method:
(§1) Cells were seeded at densities of 1,000-5,000 cells per well in 48-well tissue culture plates. After a 24 h rest period, cells were treated with compound at 10 μM, 1 μM, […], 0.08 μM, 0.016 μM, and 0.0032 μM. A group of cells were treated with the vehicle in which the compound was prepared and served as a control. Prior to treatment, cells were counted and this count was used as a baseline for the calculation of growth inhibition. The cells were grown in the presence of compounds for 6 days and were counted on day 6. All cell counting was performed using a Synentec Cellavista plate imager. Growth inhibition was calculated as a ratio of cell population doublings in the presence of compound versus the absence of compound. […] IC50 values for each compound were calculated by fitting curves to data points from each dose-response assay using the Proc NLIN function in SAS for Windows version 9.2 (SAS Institute, Inc.).
(§2) Human cancer cell lines were grouped as “sensitive” or “resistant” to MCL1 inhibition based on whether their growth was retarded by AMG-176 (i.e., (1′S,11R,12S,14E,16S,16aR,18aR)-6′-Chloro-3′,4′,12,13,16,16a,17,18,18a,19-decahydro-16-methoxy-11,12-dimethyl-,Spiro[5,7-etheno-1H,11H-cyclobut[i][1,4]oxazepino[3,4-f][1,2,7]thiadiazacyclohexadecine-2(3H),1′(2′H)-naphthalen]-8(9H)-one 10,10-dioxide) or MIK665 (i.e., (R)-2-((5-(3-chloro-2-methyl-4-(2-(4-methylpiperazin-1-yl)ethoxy)phenyl)-6-(4-fluorophenyl)thieno[2,3-d]pyrimidin-4-yl)oxy)-3-(2-((2-(2-methoxyphenyl)pyrimidin-4-yl)methoxy)phenyl)propanoic acid) (data not shown; see Table 3). These sensitive and resistant cohorts were interrogated for response to each compound, and IC50S were calculated for each cell line using the same technique described above. Average IC50S for the sensitive (“AvgSen IC50”) and resistant (“AvgRes IC50”) cohorts were calculated as arithmetic means of the group, and fold differences (“Fold Diff”) between the resistant and sensitive cohorts were calculated by diving the average IC50 for the resistant cohort by the average IC50 for the sensitive cohort. “A” represents an IC50 of 1 μM or less, “B” represents an IC50 of greater than 1 μM to 5 μM, “C” represents an IC50 of greater than 5 μM, “+” represents a fold difference of 10 or more, and “−” represents a fold difference less than 10.

Assay [2] relates to drug-sensitive cell lines of Table 3. The assay is described as follows: Cell line growth retardation assay, sensitive cohort. It is filed as cell-based, Human. As to conditions: for IC50: Homo sapiens, 144 h, arithmetic mean of IC50s over the sensitive cohort of Table 3, 6 days growth, read-out: AvgSen IC50; for Fold Diff: average IC50 of resistant cohort divided by average IC50 of sensitive cohort. On the procedure:
as §1, §2

The next assay concerns the target MCL1 (Homo sapiens, UniProt Q07820). The assay is described as follows: MCL1 affinity assay (competition binding, qPCR readout). As to conditions: recombinant MCL1, 11-point 3-fold dilution series. On the procedure: Recombinant MCL1, BCL2 and BCXL proteins were prepared in either an E. coli host derived from the BL21 strain or in HEK-293 cells. The recombinant proteins were subsequently tagged with DNA for qPCR detection. Streptavidin-coated magnetic beads were treated for 30 minutes at room temperature with the respective biotinylated peptide ligands for each recombinant protein to generate affinity resins for the assays. The liganded beads were blocked with excess biotin and washed with blocking buffer (SeaBlock (Pierce), 1% BSA, 0.05% Tween 20, 1 mM DTT) to remove unbound ligand and to reduce nonspecific binding. Binding reactions were assembled by combining recombinant protein, liganded affinity beads, and test compounds in 1× binding buffer (20% SeaBlock, 0.17×PBS, 0.05% Tween 20, 6 mM DTT). Test compounds were prepared as 111X stocks in 100% DMSO. The compounds were then diluted directly into the assays such that the final concentration of DMSO was 0.9%. The assay plates were incubated at room temperature with shaking for 1 hour and the affinity beads were washed with wash buffer (1×PBS, 0.05% Tween 20). The beads were then re-suspended in elution buffer (1×PBS, 0.05% Tween 20, 0.5 μM non-biotinylated affinity ligand) and incubated at room temperature with shaking for 30 minutes. The recombinant protein concentration in the eluates was measured by qPCR. Kds were determined using an 11-point 3-fold compound dilution series with three DMSO control points.
(In qPCR the cycle at which signal appears reflects the starting amount.)

Each structure is given as a SMILES string.

MCL1, sequence (Q07820 whole entry): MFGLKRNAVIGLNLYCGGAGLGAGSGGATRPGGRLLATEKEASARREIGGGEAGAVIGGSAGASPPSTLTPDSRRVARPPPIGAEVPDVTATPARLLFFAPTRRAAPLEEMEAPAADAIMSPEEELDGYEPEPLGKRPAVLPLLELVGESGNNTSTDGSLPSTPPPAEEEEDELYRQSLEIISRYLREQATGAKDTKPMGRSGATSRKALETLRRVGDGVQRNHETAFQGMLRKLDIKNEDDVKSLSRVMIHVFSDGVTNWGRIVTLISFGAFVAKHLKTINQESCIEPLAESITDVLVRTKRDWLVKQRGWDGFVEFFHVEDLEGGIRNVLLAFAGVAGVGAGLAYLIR

Consider `COc1cccc(-c2ncc3snc(O[C@H](Cc4ccccc4OCc4ccnc(N5CCCC(C)(C)C5)n4)C(=O)O)c3c2-c2ccc(OCCN3CCN(C)CC3)c(Cl)c2C)c1` (atropisomer, axis not shown) [Compound 62], for which the IC50 in assay [1] was > 5 µM; in assay [2], 1 to 5 µM. Besides, in assay [2], the “Fold Diff” value is “− (“−” represents a fold difference less than 10)”. Moreover, at MCL1, the Kd is 0.501 to 1.5 µM.

On to `COc1cccc(-c2ncc3snc(O[C@H](Cc4ccccc4OCc4ccnc(N5CCC(OC(F)F)CC5)n4)C(=O)O)c3c2-c2ccc(OCCN3CCN(C)CC3)c(Cl)c2C)c1` (atropisomer, axis not shown) [Compound 63], for which the half-maximal inhibitory concentration (IC50) in assay [1] was > 5 µM; in assay [2], 1 to 5 µM. Further, in assay [2], the “Fold Diff” value was “− (“−” represents a fold difference less than 10)”. Further, the Kd at MCL1 fell in the range of 0.501 to 1.5 µM.

Consider `COc1ncccc1-c1nccc(COc2ccccc2C[C@@H](Oc2nsc3cnc(-c4cccc(F)c4)c(-c4ccc(OCCN5CCN(C)CC5)c(Cl)c4C)c23)C(=O)O)n1` (atropisomer, axis not shown) [Compound 64], for which, in assay [1], the IC50 was > 5 µM. In assay [2], the IC50 is > 5 µM and the “Fold Diff” value is “− (“−” represents a fold difference less than 10)”. For the same molecule, the equilibrium dissociation constant (Kd) at MCL1 was 0.101 to 0.5 µM.

As to `COCc1ccccc1-c1nccc(COc2ccccc2C[C@@H](Oc2nsc3cnc(-c4cccc(OC)c4)c(-c4ccc(OCCN5CCN(C)CC5)c(Cl)c4C)c23)C(=O)O)n1` (atropisomer, axis not shown) [Compound 65], the IC50 in assay [1] was > 5 µM. Also, in assay [2], the IC50 is ≤ 1 µM and the “Fold Diff” value was “+ (“+” represents a fold difference of 10 or more)”. Also, the Kd on MCL1 is ≤ 0.1 µM.

Turning to `COc1cccc(-c2ncc3snc(O[C@H](Cc4ccccc4OCc4ccnc(-c5ccccc5OC(F)F)n4)C(=O)O)c3c2-c2ccc(OCCN3CCN(C)CC3)c(Cl)c2C)c1` (atropisomer, axis not shown) [Compound 66], the 50% inhibitory concentration (IC50) in assay [1] was > 5 µM. In assay [2], the IC50 is ≤ 1 µM and the “Fold Diff” value was “+ (“+” represents a fold difference of 10 or more)”. Further, the Kd on MCL1 was ≤ 0.1 µM.

Regarding `COc1cccc(-c2ncc3snc(O[C@H](Cc4ccccc4OCc4ccnc(-c5cc(F)ccc5OC)n4)C(=O)O)c3c2-c2ccc(OCCN3CCN(C)CC3)c(Cl)c2C)c1` (atropisomer, axis not shown) [Compound 67], the half-inhibitory concentration (IC50) in assay [1] was > 5 µM. In assay [2], the IC50 is ≤ 1 µM and the “Fold Diff” value was “+ (“+” represents a fold difference of 10 or more)”. Besides, the Kd at MCL1 was ≤ 0.1 µM.

Regarding `COc1cccc(-c2ncc3snc(O[C@H](Cc4ccccc4OCc4ccnc(-c5ccccc5S(C)(=O)=O)n4)C(=O)O)c3c2-c2ccc(OCCN3CCN(C)CC3)c(Cl)c2C)c1` (atropisomer, axis not shown) [Compound 68], the results for the IC50 in assay [1] and in assay [2] were > 5 µM and 1 to 5 µM, respectively. Moreover, the “Fold Diff” value in assay [2] is on record as “− (“−” represents a fold difference less than 10)”. For the same molecule, at MCL1, the Kd is ≤ 0.1 µM.

For the molecule `Cc1c(-c2c(-c3cccc(F)c3)ncc3snc(O[C@H](Cc4ccccc4OCc4ccnc(OCC(F)(F)F)n4)C(=O)O)c23)ccc(OCCN2CCN(C)CC2)c1Cl` (atropisomer, axis not shown) [Compound 69], the IC50 in assay [1] was > 5 µM. Also, in assay [2], the IC50 was ≤ 1 µM and the “Fold Diff” value is on record as “+ (“+” represents a fold difference of 10 or more)”. For the same molecule, the Kd at MCL1 is ≤ 0.1 µM.

Turning to `COc1cccc(-c2ncc3snc(O[C@H](Cc4ccccc4OCc4ccnc(N5CCC(OC)CC5)n4)C(=O)O)c3c2-c2ccc(OCCN3CCN(C)CC3)c(Cl)c2C)c1` (atropisomer, axis not shown) [Compound 70], the IC50 in assay [1] was > 5 µM. Besides, in assay [2], the IC50 is ≤ 1 µM and the “Fold Diff” value is “+ (“+” represents a fold difference of 10 or more)”. For the same molecule, on MCL1, the Kd lay in the range of 0.101 to 0.5 µM.

Turning to `COc1ccc(F)cc1-c1nccc(COc2ccccc2C[C@@H](Oc2nsc3cnc(C4CCC4)c(-c4ccc(OCCN5CCN(C)CC5)c(Cl)c4C)c23)C(=O)O)n1` (atropisomer, axis not shown) [Compound 73], the IC50 in assay [1] was > 5 µM. In addition, in assay [2], the IC50 was ≤ 1 µM and the “Fold Diff” value is given as “+ (“+” represents a fold difference of 10 or more)”. Besides, at MCL1, the Kd is ≤ 0.1 µM.

Take `Cc1c(-c2c(C3CCC3)ncc3snc(O[C@H](Cc4ccccc4OCc4ccnc(-c5ccncc5)n4)C(=O)O)c23)ccc(OCCN2CCN(C)CC2)c1Cl` (atropisomer, axis not shown) [Compound 74]: the IC50 in assay [1] is > 5 µM. In addition, in assay [2], the concentration for half-maximal inhibition (IC50) is > 5 µM and the “Fold Diff” value was “− (“−” represents a fold difference less than 10)”. For the same molecule, the Kd at MCL1 is > 1.5 µM.

Turning to `CCn1cc(-c2ncc3snc(O[C@H](Cc4ccccc4OCc4ccnc(-c5ccccc5OC)n4)C(=O)O)c3c2-c2ccc(OCCN3CCN(C)CC3)c(Cl)c2C)cn1` (atropisomer, axis not shown) [Compound 75], the IC50 in assay [1] was > 5 µM. For the same molecule, in assay [2], the IC50 is > 5 µM and the “Fold Diff” value is listed as “− (“−” represents a fold difference less than 10)”. The Kd on MCL1 lay in the range of 0.101 to 0.5 µM.

As for `CCn1ccc(-c2ncc3snc(O[C@H](Cc4ccccc4OCc4ccnc(-c5ccccc5OC)n4)C(=O)O)c3c2-c2ccc(OCCN3CCN(C)CC3)c(Cl)c2C)n1` (atropisomer, axis not shown) [Compound 76], the IC50 in assay [1] was > 5 µM. Moreover, in assay [2], the IC50 is > 5 µM and the “Fold Diff” value is recorded as “− (“−” represents a fold difference less than 10)”. At MCL1, the dissociation constant (Kd) lay within 0.501 to 1.5 µM.

Take `COc1ccccc1-c1nccc(COc2ccccc2C[C@@H](Oc2nsc3cnc(-c4cnc(C)o4)c(-c4ccc(OCCN5CCN(C)CC5)c(Cl)c4C)c23)C(=O)O)n1` (atropisomer, axis not shown) [Compound 77]: the IC50 in assay [1] is > 5 µM; in assay [2] it was 1 to 5 µM. In addition, the “Fold Diff” value in assay [2] was “− (“−” represents a fold difference less than 10)”. In addition, on MCL1, the Kd is ≤ 0.1 µM.

For `COc1ccccc1-c1nccc(COc2ccccc2C[C@@H](Oc2nsc3cnc(-c4cnc(C5CC5)o4)c(-c4ccc(OCCN5CCN(C)CC5)c(Cl)c4C)c23)C(=O)O)n1` (atropisomer, axis not shown) [Compound 78], in assay [1], the IC50 is > 5 µM. In assay [2], the IC50 fell in the range of 1 to 5 µM and the “Fold Diff” value was “− (“−” represents a fold difference less than 10)”. Also, the Kd at MCL1 was ≤ 0.1 µM.

Consider `COc1ccccc1-c1nccc(COc2ccccc2C[C@@H](Oc2nsc3cnc(-c4cnn(CC(C)C)c4)c(-c4ccc(OCCN5CCN(C)CC5)c(Cl)c4C)c23)C(=O)O)n1` (atropisomer, axis not shown) [Compound 79], for which, in assay [1], the concentration for half-maximal inhibition (IC50) was in the range of 1 to 5 µM. In addition, in assay [2], the IC50 is ≤ 1 µM and the “Fold Diff” value is given as “− (“−” represents a fold difference less than 10)”. In addition, the Kd on MCL1 lay in the range of 0.501 to 1.5 µM.

For `COc1ccccc1-c1nccc(COc2ccccc2C[C@@H](Oc2nsc3cnc(-c4cccc(C#N)c4)c(-c4ccc(OCCN5CCN(C)CC5)c(Cl)c4C)c23)C(=O)O)n1` (atropisomer, axis not shown) [Compound 80], the IC50 in assay [1] was > 5 µM. Also, in assay [2], the IC50 is ≤ 1 µM and the “Fold Diff” value is “+ (“+” represents a fold difference of 10 or more)”. For the same molecule, the Kd on MCL1 is ≤ 0.1 µM.

Usually IC50 stands for the concentration at which inhibition is half-maximal. One may read the Kd as the concentration at which binding is half-saturated.
